Earlier results, collected in US8557836B2 (priority 2008, dated 2013).

Tested on: M2 ion channel with mutations at M2 residues 27, 30, 31, and 34
Settings: mutations at M2 residues 27, 30, 31, and 34 in the M2 transmembrane domain; cited from earlier work

C1CCC2(CC1)CCN(C1=NCCN1)CC2 [BL-1743, 3-(4,5-dihydro-1H-imidazol-2-yl)-3-azaspiro[5,5]undecane hydroiodide, reference compound]
resistance to BL-1743 induced by amantadine resistance mutations: complete
